Reference: ChEMBL document CHEMBL5236664, “Design, synthesis and biological evaluation of KRASG12C-PROTACs” (Bioorg Med Chem, 2023)
Values belong to the molecule of their own block, whether it stands above or below them. Active and inactive are the calls of the source. No cut-off for these calls is given here.

Legend:
NCI-H358 [1] = assay: Inhibition of ERK phosphorylation in human NCI-H358 cells at 1 to 10 uM incubated for 24 hrs by Western blot analysis; type: cell-based; details: dose 1-10 µM
MIA PaCa-2 [2] = assay: Antiproliferative activity against human MIA PaCa-2 cells harboring KRAS G12C mutant assessed as inhibition of cell proliferation incubated for 48 hrs by MTT assay; type: functional, cell-based; details: MIA PaCa-2, 48 h
[3] = tested on: von Hippel-Lindau disease tumor suppressor/GTPase KRas (Homo sapiens), P01116+P40337 [G12C]; assay: Protac activity at VHL/KRAS G12C mutant in human NCI-H358 cells assessed as induction of KRAS G12C protein degradation at 1 uM incubated for 24 hrs by Western blot analysis; type: cell-based
NCI-H358 [4] = assay: Antiproliferative activity against human NCI-H358 cells harboring KRAS G12C mutant assessed as inhibition of cell proliferation incubated for 48 hrs by MTT assay; type: functional, cell-based; details: NCI-H358, 48 h
[5] = tested on: von Hippel-Lindau disease tumor suppressor/GTPase KRas (Homo sapiens), P01116+P40337 [G12C]; assay: Protac activity at VHL/KRAS G12C mutant in human NCI-H358 cells assessed as induction of KRAS G12C protein degradation at 10 uM incubated for 24 hrs by Western blot analysis; type: cell-based
[6] = tested on: von Hippel-Lindau disease tumor suppressor/GTPase KRas (Homo sapiens), P01116+P40337 [G12C]; assay: Protac activity at VHL/KRAS G12C mutant in human NCI-H358 cells assessed as induction of KRAS G12C protein degradation at 10 uM preincubated for 1 hr with proteasome inhibitor, MG-132 followed by compound addition and measured after 24 hrs by Western blot analysis; type: cell-based
GTPase KRas = GTPase KRas (Homo sapiens, UniProt P01116, G12C); assay: Induction of KRAS G12C degradation in human MIA PaCa-2 cells assessed as reduction in KRAS G12C protein level incubated for 24 hrs by immunoblotting analysis; type: cell-based
Sequence of GTPase KRas (P01116 whole entry G12C): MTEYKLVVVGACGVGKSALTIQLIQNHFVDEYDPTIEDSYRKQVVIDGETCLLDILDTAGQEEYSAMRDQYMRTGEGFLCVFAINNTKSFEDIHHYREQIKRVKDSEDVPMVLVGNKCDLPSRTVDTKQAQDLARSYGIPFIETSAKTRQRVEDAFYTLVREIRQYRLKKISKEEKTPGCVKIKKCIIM

NCI-H358 [7] = assay: Antiproliferative activity against human NCI-H358 cells harboring KRAS G12C mutant assessed as inhibition of cell growth; type: functional, cell-based
MIA PaCa-2 [8] = assay: Antiproliferative activity against human MIA PaCa-2 cells harboring KRAS G12C mutant assessed as inhibition of cell growth incubated for 5 days by celltiter-glow luminescent cell viability assay; type: functional, cell-based; details: MIA PaCa-2, 120 h
NCI-H358 [9] = assay: Antiproliferative activity against human NCI-H358 cells harboring KRAS G12C mutant assessed as inhibition of cell growth incubated for 5 days by celltiter-glow luminescent cell viability assay; type: functional, cell-based; details: NCI-H358, 120 h
[10] = tested on: Protein cereblon/GTPase KRas (Homo sapiens), P01116+Q96SW2 [G12C]; assay: Protac activity at CRBN/KRAS G12C mutant in human NCI-H358 cells assessed as induction of KRAS G12C protein degradation at 10 uM preincubated for 1 hr with proteasome inhibitor, MG-132 followed by compound addition and measured after 24 hrs by Western blot analysis; type: cell-based
[11] = tested on: Protein cereblon/GTPase KRas (Homo sapiens), P01116+Q96SW2 [G12C]; assay: Protac activity at CRBN/KRAS G12C mutant in human NCI-H358 cells assessed as induction of KRAS G12C protein degradation at 1 uM incubated for 24 hrs by Western blot analysis; type: cell-based
[12] = tested on: GTPase KRas (Homo sapiens), P01116 [G12C]; assay: In vivo target occupancy at KRAS G12C mutant in human MIA PaCa-2 cells xenografted athymic BALB/c nude mouse measured at 30 mins; type: functional, cell-based
Sequence of GTPase KRas (Homo sapiens), P01116 [G12C] (P01116 whole entry G12C): as above

[13] = tested on: von Hippel-Lindau disease tumor suppressor/GTPase KRas (Homo sapiens), P01116+P40337 [G12C]; assay: Protac activity at VHL/KRAS G12C mutant in human NCI-H358 cells assessed as induction of KRAS G12C protein degradation incubated for 24 hrs by Western blot analysis; type: cell-based; details: dose 5-25 µM
MIA PaCa-2 [14] = assay: Antiproliferative activity against human MIA PaCa-2 cells harboring KRAS G12C mutant assessed as inhibition of cell growth; type: functional, cell-based

SMILES: C=CC(=O)N1CCN(c2nc(=O)n(-c3ccc(C(=O)NCc4cn(CCOCCOCCOCCOCC(=O)N[C@H](C(=O)N5C[C@H](O)C[C@H]5C(=O)NCc5ccc(-c6scnc6C)cc5)C(C)(C)C)nn4)cc3C(C)C)c3cc(-c4ccccc4Cl)c(Cl)cc23)[C@@H](C)C1
inhibition (NCI-H358 [1]): Active
IC50 (MIA PaCa-2 [2]): 24.3 µM
Activity [3]: inactive
IC50 (NCI-H358 [4]): 17.1 µM
Activity [5]: Active
Activity [6]: inactive

EC50 (GTPase KRas): 320 nM
SMILES: C=C(F)C(=O)N1CCN(c2nc(OC[C@@H]3CCCN3CCCOCCC(=O)N[C@H](C(=O)N3C[C@H](O)C[C@H]3C(=O)NCc3ccc(-c4scnc4C)cc3)C(C)(C)C)nc3c2CCN(c2cccc4cccc(Cl)c24)C3)C[C@@H]1CC#N

IC50 (MIA PaCa-2 [2]): 0.77 µM
IC50 (NCI-H358 [4]): 1.48 µM
SMILES: C=CC(=O)N1CCN(c2nc(=O)n(-c3ccccc3C(C)C)c3cc(-c4ccccc4Cl)c(Cl)cc23)[C@@H](C)C1

IC50 (NCI-H358 [7]): 1 nM
SMILES: C=C(F)C(=O)N1CCN(c2nc(OC[C@@H]3CCCN3C)nc3c2CCN(c2cccc4cccc(Cl)c24)C3)C[C@@H]1CC#N [ADAGRASIB]

IC50 (MIA PaCa-2 [8]): 4.14 µM
IC50 (NCI-H358 [9]): 510 nM
SMILES: C=CC(=O)N1CCN(c2nc(NCCCN3CCN(CCCNc4cccc5c4C(=O)N(C4CCC(=O)NC4=O)C5=O)CC3)nc3c(F)c(-c4cc(O)cc5ccccc45)c(Cl)cc23)CC1 (configuration not stated)

SMILES: C=CC(=O)N1CCN(c2nc(=O)n(-c3ccc(C(=O)NCCCC(=O)Nc4cccc5c4CN(C4CCC(=O)NC4=O)C5=O)cc3C(C)C)c3cc(-c4ccccc4Cl)c(Cl)cc23)[C@@H](C)C1 (some centres not stated)
IC50 (MIA PaCa-2 [2]): 17.1 µM
Activity [10]: inactive
IC50 (NCI-H358 [4]): 22.7 µM
Activity [11]: inactive

Occ [12]: > 75%
SMILES: C=CC(=O)N1CCN(c2ncnc3c(F)c(-c4c(O)cccc4F)c(Cl)cc23)CC1

SMILES: C=CC(=O)N1CCN(c2nc(=O)n(-c3ccc(C(=O)NCCCCCC(=O)N[C@H](C(=O)N4C[C@H](O)C[C@H]4C(=O)NCc4ccc(-c5scnc5C)cc4)C(C)(C)C)cc3C(C)C)c3cc(-c4ccccc4Cl)c(Cl)cc23)[C@@H](C)C1
IC50 (MIA PaCa-2 [2]): 24.2 µM
Activity [3]: inactive
IC50 (NCI-H358 [4]): 14.2 µM
Activity [5]: Active
Activity [6]: inactive

SMILES: C=CC(=O)N1CCN(c2nc(=O)n(-c3ccc(C(=O)NCCOCCOCCOCCOCC(=O)N[C@H](C(=O)N4C[C@H](O)C[C@H]4C(=O)NCc4ccc(-c5scnc5C)cc4)C(C)(C)C)cc3C(C)C)c3cc(-c4ccccc4Cl)c(Cl)cc23)[C@@H](C)C1
inhibition (NCI-H358 [1]): Active
IC50 (MIA PaCa-2 [2]): 17.9 µM
Activity [3]: inactive
IC50 (NCI-H358 [4]): 11.1 µM
Activity [5]: Active
Activity [6]: inactive
Activity [13]: Dose-Dependent Effect

IC50 (MIA PaCa-2 [2]): > 10 µM
IC50 (NCI-H358 [4]): > 10 µM
SMILES: C=CC(=O)N1CCN(c2nc(=O)n(-c3ccc(C(=O)O)cc3C(C)C)c3cc(-c4ccccc4Cl)c(Cl)cc23)[C@@H](C)C1

IC50 (MIA PaCa-2 [14]): 22 nM
SMILES: C=CC(=O)N1CCN(c2nc(=O)n(-c3c(C)ccnc3C(C)C)c3nc(-c4c(O)cccc4F)c(F)cc23)[C@@H](C)C1 [SOTORASIB]
